Results on 9 molecules are retold here after PMC6167110, “NgcE^Sco Acts as a Lower-Affinity Binding Protein of an ABC Transporter for the Uptake of N,N′-Diacetylchitobiose in Streptomyces coelicolor A3(2)” (Microbes and Environments, 2018).

The target in series [1] is T1, NgcE^Sco (SCO6005) (Streptomyces coelicolor, UniProt O50499).
T1 construct: without putative signal peptide (29 N-terminal residues); from E. coli
T1 sequence (O50499 30-469): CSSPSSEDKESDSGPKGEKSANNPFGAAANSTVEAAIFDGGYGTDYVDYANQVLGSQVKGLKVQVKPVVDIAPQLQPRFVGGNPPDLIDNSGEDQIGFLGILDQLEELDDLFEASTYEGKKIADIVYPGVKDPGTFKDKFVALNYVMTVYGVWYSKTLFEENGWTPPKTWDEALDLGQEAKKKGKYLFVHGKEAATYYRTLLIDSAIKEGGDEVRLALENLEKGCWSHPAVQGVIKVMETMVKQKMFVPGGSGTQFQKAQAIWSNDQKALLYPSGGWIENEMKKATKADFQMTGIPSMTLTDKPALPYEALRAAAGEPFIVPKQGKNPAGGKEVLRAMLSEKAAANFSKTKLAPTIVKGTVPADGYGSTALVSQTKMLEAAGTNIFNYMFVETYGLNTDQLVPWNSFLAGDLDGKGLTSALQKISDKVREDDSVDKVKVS
Kind of series: isothermal titration calorimetry. The format is binding. The following applies: 20 mM Tris/HCl pH 8.0, 30°C; single-site fit. The text has this: isothermal titration calorimetry on NgcE^Sco (SCO6005)
(In general: Isothermal titration calorimetry measures the heat released or taken up as one component is titrated into another.)

Series [2] has as its target T1, NgcE^Sco (SCO6005). Nature of the series: intrinsic protein fluorescence titration. The format is binding.
The next series concerns the target T2, DasR (DasR-6His) (Streptomyces coelicolor, UniProt Q9K492).
T2 construct: DasR-6His from pFT240, expressed in E. coli BL21(DE3), Ni-agarose purified
Nature of the series: EMSA, inhibition of DasR binding to dre^ngcE DNA. Particulars: Cy5-labeled dre^ngcE DNA probe; allosteric. (In general: In EMSA bound probe runs differently from free probe, usually more slowly.)

Series [3] concerns the target T3, NgcE of S. olivaceoviridis (Streptomyces olivaceoviridis, UniProt Q8RJV0).
T3 construct: N-terminally His-tagged, from E. coli carrying pQEH301
T3 sequence (Q8RJV0 47-489): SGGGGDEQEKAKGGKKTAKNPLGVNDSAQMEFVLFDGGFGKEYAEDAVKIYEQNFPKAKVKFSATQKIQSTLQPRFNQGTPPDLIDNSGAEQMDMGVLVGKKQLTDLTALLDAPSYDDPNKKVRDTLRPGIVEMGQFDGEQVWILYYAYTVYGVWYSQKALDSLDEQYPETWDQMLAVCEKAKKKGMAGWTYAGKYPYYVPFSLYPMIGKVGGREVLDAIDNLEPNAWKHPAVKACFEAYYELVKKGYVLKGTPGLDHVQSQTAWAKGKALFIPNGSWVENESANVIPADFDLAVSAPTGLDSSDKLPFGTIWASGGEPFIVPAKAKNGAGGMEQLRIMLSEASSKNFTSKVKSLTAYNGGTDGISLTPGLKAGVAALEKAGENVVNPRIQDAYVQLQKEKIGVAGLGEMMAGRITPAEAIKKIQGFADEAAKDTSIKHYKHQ
Kind of series: intrinsic protein fluorescence titration. Particulars: fluorescence increase. It is filed as binding.

For the next series, the target named is T4, DasR-6His (Streptomyces coelicolor A3(2), UniProt Q9K492 1-254).
T4 sequence: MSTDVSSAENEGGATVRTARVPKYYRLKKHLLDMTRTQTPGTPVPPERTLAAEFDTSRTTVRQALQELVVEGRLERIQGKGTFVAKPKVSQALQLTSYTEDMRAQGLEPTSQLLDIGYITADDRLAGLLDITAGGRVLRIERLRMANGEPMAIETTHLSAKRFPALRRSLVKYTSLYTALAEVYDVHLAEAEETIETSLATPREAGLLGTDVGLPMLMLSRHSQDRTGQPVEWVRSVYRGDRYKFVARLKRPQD
Kind of series: EMSA; EMSA: Cy5 probe ~0.1 mM and DasR-6His ~1 mM (so in the source); probably uM) in 50 uL, 1% agarose gel; buffer, salt, pH and temperature not given. Particulars: protein: recombinant; tags: C-terminal 6xHis; chain copies: 2; label: Cy5 on the printed strand; blunt.

Broadly, the Kd is the constant that tells how readily two partners part at equilibrium. A low value points to tighter binding. Turning to `CC(=O)N[C@H]1[C@H](O[C@H]2[C@H](O)[C@@H](NC(C)=O)C(O)O[C@@H]2CO)O[C@H](CO)[C@@H](O)[C@@H]1O` (stereo partly shown) [(GlcNAc)2], binding at NgcE^Sco (SCO6005) [1] was put at a Kd of 1.53 µM.
Molecule `CC(=O)N[C@H]1C(O)O[C@H](CO)[C@H](O)[C@@H]1O` (stereo partly shown) [GalNAc] yielded a dissociation constant Kd at NgcE^Sco (SCO6005) [2] of 12 µM.
Regarding `N[C@H]1C(O)O[C@H](COP(=O)(O)O)[C@@H](O)[C@@H]1O` (stereo partly shown) [GlcN-6P], at DasR (DasR-6His), the “EMSA, inhibition of DasR binding to dre^ngcE DNA” value was “binding of DasR to the dre^ngcE-containing probe was inhibited by GlcNAc-6P and GlcN-6P”.
On the same count and under the same terms, the entry for `CC(=O)N[C@H]1C(O)O[C@H](COP(=O)(O)O)[C@@H](O)[C@@H]1O` (stereo partly shown) [GlcNAc-6P] is “binding of DasR to the dre^ngcE-containing probe was inhibited by GlcNAc-6P and GlcN-6P”.
For the molecule `CC(=O)N[C@H]1C(O)O[C@H](CO)[C@@H](O)[C@@H]1O` (stereo partly shown) [GlcNAc], the figures for the Kd (in series [3]; at NgcE^Sco (SCO6005) [1]) were 0.085 µM and 1.15 µM, respectively.
As to `CC(=O)N[C@H]1C(O)O[C@H](CO)[C@@H](O)[C@@H]1O[C@H](C)C(=O)O` (stereo partly shown) [MurNAc], binding on NgcE^Sco (SCO6005) [2] was characterised by a dissociation constant (Kd) of 25 µM.

B1: drenagKA (dsDNA)
DNA 1: CGTACACCCGGGAGAGGTCTAGTCCACTGCGGTGGTGTAG
DNA 2: CTACACCACCGCAGTGGACTAGACCTCTCCCGGGTGTACG
In the case of B1, the binding result with DasR-6His is “binds”.

B2: drengcE (dsDNA)
DNA 1: CCGCCAAGCGAAAGTGGACTATACCTGTCGGCACTCCGGG
DNA 2: CCCGGAGTGCCGACAGGTATAGTCCACTTTCGCTTGGCGG
For the molecule B2, the binding result with DasR-6His is given as “binds”.

B3: dredasA (dsDNA)
DNA 1: CAAGCTCCCCGTACTGGTCTACACCATTGGTCCAGGTCCC
DNA 2: GGGACCTGGACCAATGGTGTAGACCAGTACGGGGAGCTTG
Consider B3, for which the binding result with DasR-6His is on record as “binds”.
